Measurements taken from patent publication US11534443B2, “Quinazoline compounds, preparation method, use, and pharmaceutical composition thereof” (INSTITUTE OF MATERIA MEDICA, CHINESE ACADEMY OF MEDICAL …, priority 2016, dated 2022).

Tests used:
PI3Kα = PI3Kα (Homo sapiens (Human), UniProt P42336); experiment: Biochemical evaluation of activity of PI3Kα (Kinase-Glo luminescence kinase assay); conditions: 25 μM ATP, 50 μM PIP2, 1 h at room temperature
Method: The potency of compounds in the present intention against PI3Kα was assessed by in vitro kinase assay. The kinase activity of PI3Kα was determined by detecting the level of ADP produced in the kinase reaction with luciferase-based luminescence detection.
The Kinase-Glo™ Kinase Assay Kit was purchased from Promega. All assays were performed at room temperature using white OptiPlate™-384 well plate. The PI3Kα kinase was purchased from Invitrogen. The substrate was PIP2 from Invitrogen. The kinase buffer contained 50 mM Hepes (pH 7.5), 3 mM MgCl2, 100 mM NaCl, 1 mM EGTA, 0.03% CHAPS and 2 mM DTT. […] The substrate solution contained 100 μM PIP2 and 50 μM ATP. The test compound was diluted to 10 mM in 100% DMSO and serially diluted three times into ten different concentrations in 100% DMSO. The compound diluted in 100% DMSO was diluted 25-fold in 1×kinase buffer. 2.5 μL of the diluted compound solution and 2.5 μL PI3Kα kinase solution were added to each well of a 384-well plate. The reaction was initiated by addition of 5 μL substrate solution to each well. […] The plate was then covered and the reaction was allowed to proceed for one hour at room temperature, followed by the addition of 10 μL Kinase-Glo™ reagent to each well to stop the reaction.
The percentage of inhibition was calculated as follows: Inhibition %=100−(max−sample RLU)/(max−min)*100
wherein sample RLU was the luminescence reading for a given compound concentration, min was the reading of DMSO control, and max was the reading of the enzyme-free control. The IC50 value was calculated with the XLfit program in Excel.

[1] = test system: human lung cancer cell NCI-H460; experiment: Tumor cell viability by MTT assay; assay type: cell-based; conditions: Homo sapiens, NCI-H460, 96 h
Method: After 24 hours, 100 μL of fresh medium containing different concentrations of test compounds and the corresponding solvent control was added into each well to a final concentration of DMSO less than 0.2%. Six to nine concentration groups were set for each test compound, and three parallel wells were set for each group. The plate was incubated at 5% CO2, 37° C. for 96 hours. 20 μL of freshly prepared PBS solution containing 5 mg/mL MTT was added to each well. The supernatant was discarded after incubation for another 4 hours. 150 μL DMSO was added to each well to dissolve the MTT formazan precipitate. After being mixed by a micro-oscillator, the optical density (OD) was measured at the wavelength of 570 nm, and the tumor cells treated with DMSO were used as a control group.

PI3Kα, sequence (P42336 whole entry): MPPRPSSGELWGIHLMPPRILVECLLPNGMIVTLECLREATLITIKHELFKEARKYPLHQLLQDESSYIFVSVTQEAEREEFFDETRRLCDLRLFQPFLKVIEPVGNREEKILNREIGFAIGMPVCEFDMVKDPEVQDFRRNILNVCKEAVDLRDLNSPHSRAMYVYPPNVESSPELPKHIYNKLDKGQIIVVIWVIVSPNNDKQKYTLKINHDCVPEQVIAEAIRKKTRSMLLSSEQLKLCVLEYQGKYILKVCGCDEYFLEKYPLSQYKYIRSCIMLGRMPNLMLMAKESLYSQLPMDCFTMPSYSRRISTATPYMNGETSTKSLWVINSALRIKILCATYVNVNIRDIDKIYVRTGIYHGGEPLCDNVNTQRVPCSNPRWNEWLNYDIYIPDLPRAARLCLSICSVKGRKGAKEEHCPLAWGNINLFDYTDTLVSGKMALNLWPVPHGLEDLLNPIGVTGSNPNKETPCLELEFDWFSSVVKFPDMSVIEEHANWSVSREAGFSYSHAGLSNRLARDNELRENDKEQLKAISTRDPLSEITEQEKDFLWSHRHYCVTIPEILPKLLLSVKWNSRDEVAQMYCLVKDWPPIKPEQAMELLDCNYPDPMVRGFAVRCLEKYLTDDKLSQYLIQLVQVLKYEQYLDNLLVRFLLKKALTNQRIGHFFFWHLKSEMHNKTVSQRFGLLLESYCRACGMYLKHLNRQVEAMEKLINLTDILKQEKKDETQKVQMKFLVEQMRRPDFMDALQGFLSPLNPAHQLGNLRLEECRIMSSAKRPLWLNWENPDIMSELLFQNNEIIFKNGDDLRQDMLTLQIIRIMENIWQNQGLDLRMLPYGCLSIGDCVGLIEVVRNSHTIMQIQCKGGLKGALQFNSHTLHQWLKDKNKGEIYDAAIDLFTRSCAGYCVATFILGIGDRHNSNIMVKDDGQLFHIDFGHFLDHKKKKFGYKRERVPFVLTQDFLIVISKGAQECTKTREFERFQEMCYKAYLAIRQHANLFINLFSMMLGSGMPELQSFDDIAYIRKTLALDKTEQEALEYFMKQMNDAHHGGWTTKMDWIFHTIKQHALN
PI3Kα, sequence (P27986 whole entry partner): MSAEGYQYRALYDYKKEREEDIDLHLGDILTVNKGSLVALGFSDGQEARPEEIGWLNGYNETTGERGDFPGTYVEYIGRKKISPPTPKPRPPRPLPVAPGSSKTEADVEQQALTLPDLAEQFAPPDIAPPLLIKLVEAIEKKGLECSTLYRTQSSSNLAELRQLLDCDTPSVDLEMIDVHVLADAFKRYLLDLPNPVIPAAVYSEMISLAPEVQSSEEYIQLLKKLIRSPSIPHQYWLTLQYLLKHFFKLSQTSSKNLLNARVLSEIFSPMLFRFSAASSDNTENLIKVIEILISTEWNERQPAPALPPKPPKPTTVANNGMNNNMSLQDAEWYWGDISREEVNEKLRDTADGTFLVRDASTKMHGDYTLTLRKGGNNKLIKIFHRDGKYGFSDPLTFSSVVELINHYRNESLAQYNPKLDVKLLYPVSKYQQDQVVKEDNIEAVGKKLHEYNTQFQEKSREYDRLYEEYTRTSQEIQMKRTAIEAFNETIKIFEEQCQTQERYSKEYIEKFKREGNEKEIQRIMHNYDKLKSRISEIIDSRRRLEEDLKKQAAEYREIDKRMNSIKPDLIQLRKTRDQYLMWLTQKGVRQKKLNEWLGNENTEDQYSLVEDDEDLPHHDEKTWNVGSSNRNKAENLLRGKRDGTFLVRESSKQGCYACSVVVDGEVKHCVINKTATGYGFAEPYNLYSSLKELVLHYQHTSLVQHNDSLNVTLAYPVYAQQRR

Row | IC50 (PI3Kα) | IC50 [1] | Structure (SMILES)
1 | 0.72 nM | 32 nM | COc1ncc(-c2cc(O[C@H]3CCOC3)c3ncnc(C)c3c2)cc1NS(=O)(=O)c1ccc(F)cc1F [Example 51, (S)—N-(2-methoxy-5-(4-methyl-8-((tetrahydrofuran-3-yl)oxy)quinazolin-6-yl)pyridin-3-yl)-2,4-difluorobenzenesulfonamide]
2 | 2.1 nM | 670 nM | COc1ncc(-c2cc(O[C@H]3CCOC3)c3ncnc(C)c3c2)cc1NS(C)(=O)=O [Example 52, (S)—N-(2-methoxy-5-(4-methyl-8-((tetrahydrofuran-3-yl)oxy)quinazolin-6-yl)pyridin-3-yl)methanesulfonamide]
3 | 0.73 nM | 38 nM | COc1ncc(-c2cc(OCC3CCOCC3)c3ncnc(C)c3c2)cc1NS(=O)(=O)c1ccc(F)cc1F [Example 53, N-(2-methoxy-5-(4-methyl-8-((tetrahydro-2H-pyran-4-yl)methoxy)quinazolin-6-yl)pyridin-3-yl)-2,4-difluorobenzenesulfonamide]
4 | 1.7 nM | 97 nM | COc1ncc(-c2cc(OC3CCCCC3)c3ncnc(C)c3c2)cc1NS(=O)(=O)c1ccc(F)cc1F [Example 55, N-(5-(8-(cyclohexyloxy)-4-methylquinazolin-6-yl)-2-methoxypyridin-3-yl)-2,4-difluorobenzenesulfonamide]
5 | 0.92 nM | 73 nM | COc1ncc(-c2cc(OC3CCCC3)c3ncnc(C)c3c2)cc1NS(=O)(=O)c1ccc(F)cc1F [Example 56, N-(5-(8-(cyclopentyloxy)-4-methylquinazolin-6-yl)-2-methoxypyridin-3-yl)-2,4-difluorobenzenesulfonamide]
6 | 1.7 nM | 450 nM | COc1ncc(-c2cc(OC3CCC(F)(F)CC3)c3ncnc(C)c3c2)cc1NS(=O)(=O)c1ccc(F)cc1F [Example 57, N-(5-(8-((4,4-difluorocyclohexyl)oxy)-4-methylquinazolin-6-yl)-2-methoxypyridin-3-yl)-2,4-difluorobenzenesulfonamide]
7 | 1 nM | 56 nM | COc1ncc(-c2cc(OC3CCOC(C)(C)C3)c3ncnc(C)c3c2)cc1NS(=O)(=O)c1ccc(F)cc1F (centres unmarked) [Example 58, N-(5-(8-((2,2-dimethyltetrahydro-2H-pyran-4-yl)oxy)-4-methylquinazolin-6-yl)-2-methoxypyridin-3-yl)-2,4-difluorobenzenesulfonamide]
8 | 0.74 nM | 17 nM | COc1ncc(-c2cc(OCC3(C)COC3)c3ncnc(C)c3c2)cc1NS(=O)(=O)c1ccc(F)cc1F [Example 59, N-(2-methoxy-5-(4-methyl-8-((3-methyloxetan-3-yl)methoxy)quinazolin-6-yl)pyridin-3-yl)-2,4-difluoro-benzenesulfonamide]
9 | 1.3 nM | 240 nM | COc1ncc(-c2cc(OCC3CCCO3)c3ncnc(C)c3c2)cc1NS(=O)(=O)c1ccc(F)cc1F (centres unmarked) [Example 60, N-(2-methoxy-5-(4-methyl-8-((tetrahydrofuran-2-yl)methoxy)quinazolin-6-yl)pyridin-3-yl)-2,4-difluorobenzenesulfonamide]
10 | 1 nM | 45 nM | COc1ncc(-c2cc(OCC3CCOC3)c3ncnc(C)c3c2)cc1NS(=O)(=O)c1ccc(F)cc1F (centres unmarked) [Example 61, N-(2-methoxy-5-(4-methyl-8-((tetrahydrofuran-3-yl)methoxy)quinazolin-6-yl)pyridin-3-yl)-2,4-difluorobenzenesulfonamide]
11 | 2.5 nM | 260 nM | COc1ncc(-c2cc(OC3CCN(C)CC3)c3ncnc(C)c3c2)cc1NS(=O)(=O)c1ccc(F)cc1F [Example 62, N-(2-methoxy-5-(4-methyl-8-((1-methylpiperidin-4-yl)oxy)quinazolin-6-yl)pyridin-3-yl)-2,4-difluoro-benzenesulfonamide]
12 | 10 nM | 2100 nM | COc1ncc(-c2cc(OCCN3CCCC3)c3ncnc(C)c3c2)cc1NS(=O)(=O)c1ccc(F)cc1F [Example 63, N-(2-methoxy-5-(4-methyl-8-(2-(pyrrolidin-1-yl)ethoxy)quinazolin-6-yl)pyridin-3-yl)-2,4-difluorobenzenesulfonamide]
13 | 1.5 nM | 390 nM | COc1ncc(-c2cc(OCCn3cccn3)c3ncnc(C)c3c2)cc1NS(=O)(=O)c1ccc(F)cc1F [Example 64, N-(5-(8-(2-(1H-pyrazol-1-yl)ethoxy)-4-methylquinazolin-6-yl)-2-methoxypyridin-3-yl)-2,4-difluorobenzenesulfonamide]
14 | 1.7 nM | 230 nM | COc1ncc(-c2cc(OCC3CCN(C)CC3)c3ncnc(C)c3c2)cc1NS(=O)(=O)c1ccc(F)cc1F [Example 66, N-(2-methoxy-5-(4-methyl-8-((1-methylpiperidin-4-yl)methoxy)quinazolin-6-yl)pyridin-3-yl)-2,4-difluoro-benzenesulfonamide]
15 | 6.1 nM | 3500 nM | COc1ncc(-c2cc(OCCN(C)C)c3ncnc(C)c3c2)cc1NS(=O)(=O)c1ccc(F)cc1F [Example 67, N-(5-(8-(2-(dimethylamino)ethoxy)-4-methylquinazolin-6-yl)-2-methoxypyridin-3-yl)-2,4-difluorobenzenesulfonamide]
16 | 1.6 nM | 340 nM | COc1ncc(-c2cc(OCC3CC3)c3ncnc(C)c3c2)cc1NS(=O)(=O)c1ccc(F)cc1F [Example 68, N-(5-(8-(cyclopropylmethoxy)-4-methylquinazolin-6-yl)-2-methoxypyridin-3-yl)-2,4-difluorobenzenesulfonamide]
17 | 2.2 nM | 50 nM | COc1ncc(-c2cc(OC(C)C)c3ncnc(C)c3c2)cc1NS(=O)(=O)c1ccc(F)cc1F [Example 69, N-(5-(8-isopropoxy-4-methylquinazolin-6-yl)-2-methoxypyridin-3-yl)-2,4-difluorobenzenesulfonamide]
18 | 1.9 nM | 1000 nM | COc1ncc(-c2cc(OC(F)F)c3ncnc(C)c3c2)cc1NS(=O)(=O)c1ccc(F)cc1F [Example 71, N-(5-(8-(difluoromethoxy)-4-methylquinazolin-6-yl)-2-methoxypyridin-3-yl)-2,4-difluorobenzenesulfonamide]
19 | 0.7 nM | 500 nM | COc1ncc(-c2cc(OC)c3ncnc(C)c3c2)cc1NS(=O)(=O)c1ccc(F)cc1F [Example 72, N-(2-methoxy-5-(8-methoxy-4-methylquinazolin-6-yl)pyridin-3-yl)-2,4-difluorobenzenesulfonamide]
20 | 1.3 nM | 740 nM | Cc1ncnc2c(OC3CCOCC3)cc(-c3cnc(Cl)c(NS(=O)(=O)c4ccc(F)cc4)c3)cc12 [Example 73, N-(2-chloro-5-(4-methyl-8-((tetrahydro-2H-pyran-4-yl)oxy)quinazolin-6-yl)pyridin-3-yl)-4-fluorobenzenesulfonamide]
21 | 1.1 nM | 870 nM | Cc1ncc(-c2cc(OC3CCOCC3)c3ncnc(C)c3c2)cc1NS(=O)(=O)c1ccc(F)cc1F [Example 74, N-(2-methyl-5-(4-methyl-8-((tetrahydro-2H-pyran-4-yl)oxy)quinazolin-6-yl)pyridin-3-yl)-2,4-difluorobenzenesulfonamide]

Row | Structure (SMILES) | IC50 (PI3Kα) | IC50 [1]
22 | COc1ncc(-c2cc(OC3CCC3)c3ncnc(C)c3c2)cc1NS(=O)(=O)c1ccc(F)cc1F [Example 70, N-(5-(8-cyclobutoxy-4-methylquinazolin-6-yl)-2-methoxypyridin-3-yl)-2,4-difluorobenzenesulfonamide] | 0.9 nM | 22 nM
